According to patent US20250368987A1, “COMPOSITION COMPRISING TAF10 INHIBITOR FOR PREVENTING OR TREATING COLORECTAL CANCER” (KOREA ADVANCED INSTITUTE OF SCIENCE AND TECHNOLOGY, priority 2021, published 2025):

Legend:
cancer cells = assay: Combined TAF10 inhibition and oxaliplatin: confluence, PI staining, FACS cell death; format: cell-based
Procedure: (§1) Infected cells were inoculated in a 96-well plate (6×10^3 cell/well) to measure the cell growth and the cell growth was recorded every 3 hours using IncuCyte ZOOM (Essen Bioscience), and cell confluence was analyzed using IncuCyte ZOOM 2016A software.
Meanwhile, an increase in the cancer stemness of cancer cells may also cause increased resistance of cancer cells to anticancer agents. Therefore, a colorectal cancer animal model in which TAF10 was inhibited or not was treated with the anticancer agent, oxaliplatin (1 μM concentration) and its therapeutic effect was confirmed.
In addition, as a result of staining cells by treating a PI solution capable of confirming cell death, it was confirmed that proliferation was suppressed when TAF10 was inhibited, and that the number of dying cells increased when treated with oxaliplatin along with TAF10 inhibition (FIG. 9B).
In addition, the degree of cell death through PI and 7-AAD was confirmed through FACS. In this regard, Q1 means NECROSIS, Q2 means LATE APOPTOSIS, Q3 means EARLY APOPTOSIS, and Q4 means live cells. The degree of cell death may be determined by increasing the ratio of Q2. As a result, it was confirmed that the ratio of Q2 increased when TAF10 was inhibited and oxaliplatin was combined, so that it was confirmed that cell death increased (FIG. 9C).

HCT116 [1] = assay: Combined TAF10 inhibition and oxaliplatin in colorectal cancer-inducing animal model; format: in vivo, Nude mice
Procedure: First, TAF10 WT (wild type) and TAF10 knockdown (KD) cells were prepared in the same manner as in Experimental Example 1-3 using shRNA consisting of a base sequence represented by SEQ ID NO: 7 in HCT116, which was a colorectal cancer cell line. 2×10^6 of TAF10 WT or TAF10 KD was prepared and subcutaneously injected into Nude mice deficient of an immune system. Tumor occurrence was confirmed every two days, and its size was measured. In addition, in order to confirm the effect of combined treatment with anticancer agents, the colorectal cancer-inducing animal model prepared in the same manner as before was divided into four experimental groups, and after 2 weeks (14 days) when the tumor had formed to some extent, a control group was administered with PBS and in the experimental group, oxaliplatin was injected into the abdominal cavity at a concentration of 10 mg/kg every two days.
In addition, the combined effect in vivo was confirmed using a colorectal cancer-inducing animal model prepared by subcutaneously injecting HCT116 in which TAF10 was inhibited or HCT116 in which TAF10 was not inhibited. From two weeks after the tumor in each experimental group was formed, WT and KD were divided into two experimental groups. […]

HCT116 [2] = assay: Cell growth (IncuCyte confluence) after siRNA transfection; format: cell-based; settings: HCT116, siRNA 30 nM, FIG. 2A
Procedure: (§2) Transfection reagents RNAiMAX (Thermo Fisher Scientific) and siRNA (BIONEER Corporation, Daejeon, South Korea) were mixed in an Opti-mem medium at a final concentration of 30 nM. Target cells were cultured with the mixture, and then cells were harvested for RNA extraction after 72 hours of siRNA transfection.
The used siRNAs siNPM1, siTAF10, and siZNHIT1 were as follows. • (SEQ ID NO: 1) siTAF10-SENSE: GUGAAGAAGCCGCACUACU • (SEQ ID NO: 2) siTAF10-ANTISENSE: AGUAGUGCGGCUUCUUCAC • (SEQ ID NO: 3) siNPM1-SENSE: […] GA • (SEQ ID NO: 4) siNPM1-ANTISENSE: […] UC • (SEQ ID NO: 5) siZNHIT1-SENSE: GAGACUGCCUCAGUUUGAU • (SEQ ID NO: 6) siZNHIT1-ANTISENSE: AUCAAACUGAGGCAGUCUC 1-3. Transfection and Transduction of shRNA
as §1
Based on those confirmed in Example 1, NPM1, TAF, or ZNHIT1 of the colorectal cancer cell line HCT116 was inhibited as in Experimental Example 1-2, and its growth ability was confirmed. […] In addition, as a result of confirming overall survival probability when TAF10 is inhibited in The Cancer Genome Atlas (TCGA) as a large-scale cancer database, it was confirmed that the survival probability was increased (see FIG. 2B). […]

CACO2 = assay: Growth rate of colorectal cancer cell line upon TAF10 inhibition (siRNA); format: cell-based; settings: FIG. 4A
Procedure: as §2, §1
(§3) Through Example, it was confirmed that the TAF10 inhibition suppressed the growth of HCT116, a colorectal cancer cell line. As a result, the expression genes and proteins related with the growth rate and cell growth and the expression of genes and proteins related to cell cycle arrest were confirmed according to TAF10 inhibition (using siRNA) in HT29 and CACO2 colorectal cancer cell lines, which were other colorectal cancer cell lines. In addition, the cell cycle was confirmed according to TAF10 inhibition, and whether there was an increase in senescent cells was confirmed. The senescent cells were confirmed by staining the senescent cells using a senescence b-galactosidase staining kit (Cell signaling).

HT29 = assay: as above; format: cell-based; settings: FIG. 4A
Procedure: as §2, §1, §3

HCT116 [3] = assay: qRT-PCR gene expression upon TAF10 inhibition; format: cell-based
HCT116 [4] = assay: Western blot protein expression upon TAF10 inhibition; format: cell-based
Procedure: Cellular proteins were dissolved and extracted on ice in a lysis buffer (20 mM HEPES (pH 7.2), 150 mM NaCl, 0.5% Triton X-100, 10% glycerol, 0.1% SDS) containing 0.1% protease inhibitor and phosphatase inhibitor cocktail (Thermo-scientific, USA). The proteins were separated through protein electrophoresis (10% gel) and transferred to a PVDF membrane. For Western blot, an anti-TAF10 (ab263967) antibody was purchased from Abcam, anti-AKT1 (2938S), anti-phosphoAkt (2965S), anti-phospho B-raf (#2696), anti-MEK1/2. (#9122), anti-phosphoERK1/2 (#9106), anti-STAT3 (#9139), and anti-phosphoSTAT3 (#9131) antibodies were purchased from Cell signaling, and anti-phospho m-TOR (sc-293133), anti-phosphoMEK1/2 (sc-81503), anti-CyclinE1 (sc-247), anti-CDK2 (sc-6248), and anti-VEGF (sc7269) antibodies were purchased and used from Santacruz. A rabbit polyclonal anti-GAPDH antibody was provided and used from the Korea Research Institute of Bioscience and Biotechnology. The expression of each protein band was confirmed using an enhanced chemiluminescence (ECL) solution.
Through Example, it was confirmed that the TAF10 inhibition suppressed the growth of HCT116, a colorectal cancer cell line. […]

HCT116 [5] = assay: Cell cycle by FACS (PI staining); format: cell-based; settings: HCT116, FIG. 5B
Procedure: The cells were treated with trypsin-EDTA, separated into single cells, washed twice with PBS, and fixed with 70% ethanol for 1 hour at −20° C. After washing again with PBS twice, the cells were treated with 20 μg/ml of RNase A, and flow cytometry analysis was performed through 20 μg/ml of propidium iodide (PI) staining.
as §3

HCT116 [6] = assay: Senescence b-galactosidase staining; format: cell-based; settings: HCT116, FIG. 5C

## O=C1[O][Pt]2([NH][C@@H]3CCCC[C@H]3[NH]2)[O]C1=O [oxaliplatin]
Cancer cells; FIG. 9
  effect of TAF10 inhibition on the anticancer effect of oxaliplatin: synergistic effect
Cancer cells; TAF10 inhibited and oxaliplatin 1 μM, FIG. 9A
  cancer confluence: significantly reduced
Cancer cells; TAF10 inhibited and oxaliplatin combined, FIG. 9C
  ratio of Q2 (LATE APOPTOSIS), FACS PI and 7-AAD: increased
Cancer cells; oxaliplatin along with TAF10 inhibition, FIG. 9B
  number of dying cells (PI staining): increased
HCT116 [1]; TAF10 KD HCT116, oxaliplatin 10 mg/kg once every two days, after 44 days, FIG. 9E
  tumor size: significantly reduced
HCT116 [1]; TAF10 inhibited and oxaliplatin, FIGS. 9D and 9E
  tumor size (tumor volume over time): significantly reduced

## siTAF10: siRNA targeting TAF10; sense GUGAAGAAGCCGCACUACU (SEQ ID NO: 1), antisense AGUAGUGCGGCUUCUUCAC (SEQ ID NO: 2) (listed as RNA, chemistry not given here)
HCT116 [2]
  cell proliferation: significantly reduced
CACO2
  growth rate: reduced
HT29
  growth rate: reduced
HCT116 [3]; FIG. 5A
  expression of genes TP53, CDKN1A, and CXCL8 related to cell cycle arrest: increased
HCT116 [3]; HCT116, FIG. 4B
  expression of genes MKI167, PCNA, and MCM7 related to cell growth: reduced
HCT116 [4]; FIG. 5A
  expression of proteins Cyclin E1 and CDK2 related to cell cycle arrest: increased
HCT116 [4]; HCT116, FIG. 4B
  expression of proteins tAkt1, pAkt, pGSK-3β, m-TOR, pB-raf, tMEK1/2, pMEK1/2, and pERK1/2: reduced
HCT116 [5]
  cell cycle: arrested
HCT116 [6]
  number of senescent cells: increased
